Test systems include A549; ACHN; HCT-116; HL-60; HOP-62; Hs-578T; IGROV-1; M14; MDA-N; Malme-3M; NCI-H460; NCI/ADR-RES; OVCAR-3; OVCAR-8; SF-295; SF-539; SNB-19; U-251; KM12; TK-10.
What all share (experiment): growth of human tumour cells (NCI), 48 h

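Dose response: 5 concentrations. Exposure: 48 h. Format: 96-well plates. Endpoint: linear interpolation; highest concentration if not reached. GI50 marks 50% less growth.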 The source made the active and inactive calls. Cut-off read from the data, not from the text of the source: active = GI50 up to about 1.1 µM and inactive = higher. Bounds are passed on as bounds.

In the case of `COC(=O)C1(SC)C2CCC3C2CCC31` (stereo not drawn), the GI50 with A549, with ACHN, in the experiment on HCT-116, in the experiment on HL-60, in the experiment with HOP-62 and with Hs-578T was > 100 µM (inactive) throughout. In addition, the GI50 in the experiment on IGROV-1, in the experiment on M14, in the experiment with MDA-N, in the experiment on Malme-3M, with NCI-H460 and in the experiment on NCI/ADR-RES was > 100 µM (inactive) each time. The GI50 in the experiment on OVCAR-3, with OVCAR-8, in the experiment with SF-295, in the experiment with SF-539, in the experiment with SNB-19 and in the experiment with U-251 was > 100 µM (inactive) in each case.
For the compound `CCOC(=O)/C=C1/Nc2cc(F)c(F)cc2NC1=O`, the GI50 in the experiment with A549, in the experiment on ACHN, in the experiment with HCT-116, in the experiment with HL-60, with HOP-62 and with Hs-578T was > 100 µM (inactive) in each case. Besides, the GI50 in the experiment on KM12, with M14, with MDA-N, with Malme-3M, with NCI-H460 and in the experiment with NCI/ADR-RES was > 100 µM (inactive) in each case. In addition, the GI50 in the experiment with OVCAR-3, with OVCAR-8, with SF-295, in the experiment on SF-539, with SNB-19 and in the experiment with TK-10 was > 100 µM (inactive) throughout. Also, the GI50 in the experiment with U-251 was > 100 µM (inactive).
In the case of `CCOC(=O)c1c(SCC#N)n(-c2ccccc2)c(=S)n(-c2ccccc2)c1=O`, the GI50 with A549 is 39.4 µM (inactive); in the experiment on ACHN it was 28.1 µM (inactive); in the experiment with HCT-116, 43.9 µM (inactive); in the experiment on HL-60, 55.6 µM (inactive); in the experiment on HOP-62, 88.1 µM (inactive); with Hs-578T, 28.1 µM (inactive). Further, the GI50 is 30.8 µM (inactive) in the experiment on IGROV-1; 47 µM (inactive) in the experiment with KM12; > 100 µM (inactive) in the experiment with M14; 82.8 µM (inactive) with MDA-N; 39.2 µM (inactive) in the experiment on Malme-3M; 34.2 µM (inactive) with NCI-H460. Also, the GI50 with NCI/ADR-RES is 35.3 µM (inactive); in the experiment with OVCAR-3, 33.7 µM (inactive); in the experiment with OVCAR-8 it was 38.5 µM (inactive); in the experiment with SF-295, 32.1 µM (inactive); in the experiment with SNB-19 it was 37.8 µM (inactive); in the experiment on TK-10 it was > 100 µM (inactive). The GI50 in the experiment with U-251 is 33 µM (inactive).
Take `Cc1ccc(O)c(C(c2cccc(C(c3cc(C)ccc3O)c3cc(C)ccc3O)c2)c2cc(C)ccc2O)c1`: the GI50 with A549 was 1.97 µM (inactive); in the experiment with ACHN, 1.73 µM (inactive); with HCT-116, 1.89 µM (inactive); in the experiment with HL-60, 2.01 µM (inactive); in the experiment with HOP-62, 2.06 µM (inactive); in the experiment on Hs-578T it was 1.56 µM (inactive). In addition, the GI50 is 1.56 µM (inactive) with IGROV-1; 1.65 µM (inactive) in the experiment on KM12; 1.88 µM (inactive) in the experiment on M14; 1.79 µM (inactive) with MDA-N; 1.87 µM (inactive) in the experiment on Malme-3M; 3.01 µM (inactive) in the experiment on NCI/ADR-RES. Besides, the GI50 was 2.21 µM (inactive) in the experiment on OVCAR-3; 2 µM (inactive) in the experiment with OVCAR-8; 2.24 µM (inactive) in the experiment on SF-295; 1.75 µM (inactive) with SF-539; 1.89 µM (inactive) with SNB-19; 1.82 µM (inactive) in the experiment on TK-10. The GI50 in the experiment with U-251 is 1.77 µM (inactive).
For the compound `O=S(=O)(O)c1ccc2c(/N=N\c3ccc(F)cc3)c(O)c(S(=O)(=O)O)cc2c1`, the GI50 in the experiment with A549 is > 100 µM (inactive); with ACHN, > 100 µM (inactive); with HCT-116 it was > 100 µM (inactive); in the experiment with HL-60, < 0.01 µM (active); in the experiment on HOP-62 it was > 100 µM (inactive); in the experiment with Hs-578T it was > 100 µM (inactive). Moreover, the GI50 in the experiment on IGROV-1, with KM12, with M14, with MDA-N, in the experiment with Malme-3M and in the experiment with NCI/ADR-RES was > 100 µM (inactive) in each case. For the same compound, the GI50 in the experiment with OVCAR-3, in the experiment with OVCAR-8, with SF-295, in the experiment on SNB-19, in the experiment with TK-10 and with U-251 was > 100 µM (inactive) in each case.
In the case of `COC(=O)c1cc(C#N)[nH]c1-c1ccsc1`, the GI50 with A549 was > 100 µM (inactive); in the experiment with ACHN it was 85.7 µM (inactive); in the experiment with HCT-116 it was > 100 µM (inactive); in the experiment with HL-60, 18.2 µM (inactive); in the experiment on HOP-62, > 100 µM (inactive); in the experiment with Hs-578T, > 100 µM (inactive). Besides, the GI50 in the experiment on IGROV-1, with KM12, in the experiment on M14, in the experiment on MDA-N, in the experiment with Malme-3M and with NCI/ADR-RES was > 100 µM (inactive) in each case. Further, the GI50 in the experiment with OVCAR-3, with OVCAR-8, in the experiment on SF-295, in the experiment on TK-10 and in the experiment with U-251 was > 100 µM (inactive) each time.
Turning to `CCOC(=O)C(NC(=O)c1ccccc1)(N1CCOCC1)C(F)(F)F` (stereo not drawn), the GI50 with A549, in the experiment with ACHN, with HCT-116, with HL-60, in the experiment with HOP-62 and with Hs-578T was > 100 µM (inactive) throughout. The GI50 in the experiment on IGROV-1, with KM12, in the experiment on M14, in the experiment on MDA-N, with Malme-3M and in the experiment with NCI/ADR-RES was > 100 µM (inactive) throughout. Besides, the GI50 in the experiment on OVCAR-3, in the experiment on OVCAR-8, with SF-295, with SF-539, with SNB-19 and with TK-10 was > 100 µM (inactive) in each case. Also, the GI50 in the experiment with U-251 is > 100 µM (inactive).
With `CC1=NC2(CCCCC2)N(Cl)C(=O)C1SC#N` (stereo not drawn), the GI50 in the experiment with A549 was 0.0504 µM (active); with ACHN, 17.7 µM (inactive); with HL-60, > 100 µM (inactive); with HOP-62 it was 22.9 µM (inactive); in the experiment on Hs-578T it was 41 µM (inactive); in the experiment with IGROV-1 it was 18.2 µM (inactive). For the same compound, the GI50 with KM12 was 21.4 µM (inactive); with M14, 16.2 µM (inactive); in the experiment with MDA-N, 15.8 µM (inactive); with Malme-3M, 18.2 µM (inactive); in the experiment with NCI-H460 it was > 10 µM (inactive); with NCI/ADR-RES it was 20.3 µM (inactive). Also, the GI50 in the experiment with OVCAR-3 was 19.6 µM (inactive); in the experiment with OVCAR-8, 17.9 µM (inactive); in the experiment on SF-295, 18.7 µM (inactive); in the experiment on SF-539, 19.5 µM (inactive); in the experiment with SNB-19, 23.4 µM (inactive); in the experiment with TK-10, 20.3 µM (inactive). For the same compound, the GI50 in the experiment with U-251 was 19.4 µM (inactive).

The values are drawn from ChEMBL document CHEMBL1201862, “PubChem BioAssay data set” (2004).
